Results on 18 compounds are retold here after patent publication US10213433B2 (AbbVie Inc., priority 2010, dated 2019).

Where only a bound is given, the exact number is not on record here.

Chain of Bcl-2 protein (P10415 whole entry): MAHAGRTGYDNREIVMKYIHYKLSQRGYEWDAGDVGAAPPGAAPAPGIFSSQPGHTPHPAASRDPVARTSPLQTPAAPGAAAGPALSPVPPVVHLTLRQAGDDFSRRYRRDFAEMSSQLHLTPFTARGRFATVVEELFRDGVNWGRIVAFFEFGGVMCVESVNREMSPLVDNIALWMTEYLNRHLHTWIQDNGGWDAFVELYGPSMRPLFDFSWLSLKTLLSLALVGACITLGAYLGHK

Test system in one data set: not listed separately
Description: log D at pH 7.4 by an HPLC method.
Settings: not given
The data set is classed as physicochemical. The text has this: Table 2 below presents data for log D (a parameter related to lipophilicity) at pH 7.4, as determined by an HPLC method, for representative compounds.
Take `CC1(C)CCC(CN2CCN(c3ccc(C(=O)NS(=O)(=O)c4ccc(NCC5CCOCC5)c([N+](=O)[O-])c4)c(Oc4ccc5[nH]ccc5c4)c3)CC2)=C(c2ccc(Cl)cc2)C1` [Compound 18, 4-(4-{[2-(4-chlorophenyl)-4,4-dimethylcyclohex-1-en-1-yl]methyl}piperazin-1-yl)-2-(1H-indol-5-yloxy)-N-({3-nitro-4-[(tetrahydro-2H-pyran-4-ylmethyl)amino]phenyl}sulfonyl)benzamide]: the chromatographic logD stood at 6.35.

On to `CN1CCC(Nc2ccc(S(=O)(=O)NC(=O)c3ccc(N4CCN(CC5=C(c6ccc(Cl)cc6)CC(C)(C)CC5)CC4)cc3Oc3ccc4[nH]ccc4c3)cc2[N+](=O)[O-])CC1` [Compound 90, 4-(4-{[2-(4-chlorophenyl)-4,4-dimethylcyclohex-1-en-1-yl]methyl}piperazin-1-yl)-2-(1H-indol-5-yloxy)-N-({4-[(1-methylpiperidin-4-yl)amino]-3-nitrophenyl}sulfonyl)benzamide], for which the chromatographic logD worked out at 6.69.

As for `CC1(C)CCC(CN2CCN(c3ccc(C(=O)NS(=O)(=O)c4ccc(NC[C@H]5CC[C@](C)(O)CC5)c([N+](=O)[O-])c4)c(Oc4cnc5[nH]ccc5c4)c3)CC2)=C(c2ccc(Cl)cc2)C1` [Compound 338, 4-(4-{[2-(4-chlorophenyl)-4,4-dimethylcyclohex-1-en-1-yl]methyl}piperazin-1-yl)-N-[(4-{[(cis-4-hydroxy-4-methylcyclohexyl)methyl]amino}-3-nitrophenyl)sulfonyl]-2-(1H-pyrrolo[2,3-b]pyridin-5-yloxy)benzamide], the “log D” value was determined as 5.67.

Compound `CN1CCN(Nc2ccc(S(=O)(=O)NC(=O)c3ccc(N4CCN(CC5=C(c6ccc(Cl)cc6)CC(C)(C)CC5)CC4)cc3Oc3ccc4[nH]ccc4c3)cc2[N+](=O)[O-])CC1` [Compound 91, 4-(4-{[2-(4-chlorophenyl)-4,4-dimethylcyclohex-1-en-1-yl]methyl}piperazin-1-yl)-2-(1H-indol-5-yloxy)-N-({4-[(4-methylpiperazin-1-yl)amino]-3-nitrophenyl}sulfonyl)benzamide] displayed a chromatographic logD of 6.59.

Compound `O=C(NS(=O)(=O)c1ccc(NCC2CCOCC2)c([N+](=O)[O-])c1)c1ccc(N2CCN(Cc3ccccc3-c3ccc(Cl)cc3)CC2)cc1Oc1ccc2[nH]ccc2c1` [Compound 87, 4-{4-[(4′-chloro-1,1′-biphenyl-2-yl)methyl]piperazin-1-yl}-2-(1H-indol-5-yloxy)-N-({3-nitro-4-[(tetrahydro-2H-pyran-4-ylmethyl)amino]phenyl}sulfonyl)benzamide] registered a chromatographic logD of 5.86.

As for `CC1(C)CCC(CN2CCN(c3ccc(C(=O)NS(=O)(=O)c4ccc(NC[C@H]5CC[C@H](C#N)CC5)c([N+](=O)[O-])c4)c(Oc4cnc5[nH]ccc5c4)c3)CC2)=C(c2ccc(Cl)cc2)C1` [Compound 276, 4-(4-{[2-(4-chlorophenyl)-4,4-dimethylcyclohex-1-en-1-yl]methyl}piperazin-1-yl)-N-[(4-{[(trans-4-cyanocyclohexyl)methyl]amino}-3-nitrophenyl)sulfonyl]-2-(1H-pyrrolo[2,3-b]pyridin-5-yloxy)benzamide], the chromatographic logD was found to be 5.59.

In the case of `CC1(C)CCC(CN2CCN(c3ccc(C(=O)NS(=O)(=O)c4ccc(OC[C@H]5CC[C@H](N6CCOCC6)CC5)c(Cl)c4)c(Oc4cnc5[nH]ccc5c4)c3)CC2)=C(c2ccc(Cl)cc2)C1` [Compound 303, N-[(3-chloro-4-{[trans-4-(morpholin-4-yl)cyclohexyl]methoxy}phenyl)sulfonyl]-4-(4-{[2-(4-chlorophenyl)-4,4-dimethylcyclohex-1-en-1-yl]methyl}piperazin-1-yl)-2-(1H-pyrrolo[2,3-b]pyridin-5-yloxy)benzamide], the chromatographic logD amounted to 6.24.

In turn, `COCCNc1ccc(S(=O)(=O)NC(=O)c2ccc(N3CCN(CC4=C(c5ccc(Cl)cc5)CC(C)(C)CC4)CC3)cc2Oc2ccc3[nH]ccc3c2)cc1[N+](=O)[O-]` [Compound 20, 4-(4-{[2-(4-chlorophenyl)-4,4-dimethylcyclohex-1-en-1-yl]methyl}piperazin-1-yl)-2-(1H-indol-5-yloxy)-N-({4-[(2-methoxyethyl)amino]-3-nitrophenyl}sulfonyl)benzamide] displayed a chromatographic logD of 6.24.

Regarding `CN1CCN(Nc2ccc(S(=O)(=O)NC(=O)c3ccc(N4CCN(CC5=C(c6ccc(Cl)cc6)CC(C)(C)CC5)CC4)cc3Oc3cnc4[nH]ccc4c3)cc2[N+](=O)[O-])CC1` [Compound 6, 4-(4-{[2-(4-chlorophenyl)-4,4-dimethylcyclohex-1-en-1-yl]methyl}piperazin-1-yl)-N-({4-[(4-methylpiperazin-1-yl)amino]-3-nitrophenyl}sulfonyl)-2-(1H-pyrrolo[2,3-b]pyridin-5-yloxy)benzamide], the chromatographic logD was 5.74.

The compound `CC1(C)CCC(CN2CCN(c3ccc(C(=O)NS(=O)(=O)c4ccc(NC5CCN(C6CCOCC6)CC5)c([N+](=O)[O-])c4)c(Oc4ccc5[nH]ccc5c4)c3)CC2)=C(c2ccc(Cl)cc2)C1` [Compound 89, 4-(4-{[2-(4-chlorophenyl)-4,4-dimethylcyclohex-1-en-1-yl]methyl}piperazin-1-yl)-2-(1H-indol-5-yloxy)-N-({3-nitro-4-[(1-tetrahydro-2H-pyran-4-ylpiperidin-4-yl)amino]phenyl}sulfonyl)benzamide] returned a chromatographic logD of 6.21.

Compound `CC1(C)CCC(CN2CCN(c3ccc(C(=O)NS(=O)(=O)c4ccc(OCC5COCCO5)c([N+](=O)[O-])c4)c(Oc4ccc5[nH]ccc5c4)c3)CC2)=C(c2ccc(Cl)cc2)C1` (stereo not drawn) [Compound 92, 4-(4-{[2-(4-chlorophenyl)-4,4-dimethylcyclohex-1-en-1-yl]methyl}piperazin-1-yl)-N-{[4-(1,4-dioxan-2-ylmethoxy)-3-nitrophenyl]sulfonyl}-2-(1H-indol-5-yloxy)benzamide] returned a chromatographic logD of 5.6.

With `CC1(C)CCC(CN2CCN(c3ccc(C(=O)NS(=O)(=O)c4ccc(NCC5CCC(F)(F)CC5)c([N+](=O)[O-])c4)c(Oc4cnc5[nH]ccc5c4)c3)CC2)=C(c2ccc(Cl)cc2)C1` [Compound 239, 4-(4-{[2-(4-chlorophenyl)-4,4-dimethylcyclohex-1-en-1-yl]methyl}piperazin-1-yl)-N-[(4-{[(4,4-difluorocyclohexyl)methyl]amino}-3-nitrophenyl)sulfonyl]-2-(1H-pyrrolo[2,3-b]pyridin-5-yloxy)benzamide], the chromatographic logD was found to be 5.92.

For `CC1(C)CCC(CN2CCN(c3ccc(C(=O)NS(=O)(=O)c4ccc(NCC5CCOCC5)c([N+](=O)[O-])c4)c(Oc4cnc5[nH]ccc5c4)c3)CC2)=C(c2ccc(Cl)cc2)C1` [Compound 5, 4-(4-{[2-(4-chlorophenyl)-4,4-dimethylcyclohex-1-en-1-yl]methyl}piperazin-1-yl)-N-({3-nitro-4-[(tetrahydro-2H-pyran-4-ylmethyl)amino]phenyl}sulfonyl)-2-(1H-pyrrolo[2,3-b]pyridin-5-yloxy)benzamide], the chromatographic logD worked out at 5.37.

As to `CC1(C)CCC(CN2CCN(c3ccc(C(=O)NS(=O)(=O)c4cnc(NCC5(F)CCOCC5)c(Cl)c4)c(Oc4cnc5[nH]ccc5c4)c3)CC2)=C(c2ccc(Cl)cc2)C1` [Compound 242, N-[(5-chloro-6-{[(4-fluorotetrahydro-2H-pyran-4-yl)methyl]amino}pyridin-3-yl)sulfonyl]-4-(4-{[2-(4-chlorophenyl)-4,4-dimethylcyclohex-1-en-1-yl]methyl}piperazin-1-yl)-2-(1H-pyrrolo[2,3-b]pyridin-5-yloxy)benzamide], the chromatographic logD turned out to be 5.51.

Consider `CC1(C)CCC(CN2CCN(c3ccc(C(=O)NS(=O)(=O)c4ccc(N[C@H]5CC[C@H](N6CCOCC6)CC5)c([N+](=O)[O-])c4)c(Oc4cnc5[nH]ccc5c4)c3)CC2)=C(c2ccc(Cl)cc2)C1` [Compound 9, trans-4-(4-{[2-(4-chlorophenyl)-4,4-dimethylcyclohex-1-en-1-yl]methyl}piperazin-1-yl)-N-({4-[(4-morpholin-4-ylcyclohexyl)amino]-3-nitrophenyl}sulfonyl)-2-(1H-pyrrolo[2,3-b]pyridin-5-yloxy)benzamide], for which the chromatographic logD was 5.71.

For the compound `CC1(C)CCC(CN2CCN(c3ccc(C(=O)NS(=O)(=O)c4ccc(NC[C@H]5CC[C@@](C)(O)CC5)c([N+](=O)[O-])c4)c(Oc4cnc5[nH]ccc5c4)c3)CC2)=C(c2ccc(Cl)cc2)C1` [Compound 337, 4-(4-{[2-(4-chlorophenyl)-4,4-dimethylcyclohex-1-en-1-yl]methyl}piperazin-1-yl)-N-[(4-{[(trans-4-hydroxy-4-methylcyclohexyl)methyl]amino}-3-nitrophenyl)sulfonyl]-2-(1H-pyrrolo[2,3-b]pyridin-5-yloxy)benzamide], the “log D” value was found to be 5.48.

The target in another data set is Bcl-2 protein (Homo sapiens (Human), UniProt P10415). Description: Bcl-2 binding TR-FRET (Time-Resolved Fluorescence-Resonance-Energy-Transfer) assay. Particulars: inhibition constant for binding to Bcl-2 protein. The text has this:
The smaller the Ki value, the greater is the binding affinity.
As to `CC1(C)CCC(CN2CCN(c3ccc(C(=O)NS(=O)(=O)c4ccc(NC[C@H]5CC[C@H](O)C5)c([N+](=O)[O-])c4)c(Oc4cnc5[nH]ccc5c4)c3)CC2)=C(c2ccc(Cl)cc2)C1` [Compound 157, 4-(4-{[2-(4-chlorophenyl)-4,4-dimethylcyclohex-1-en-1-yl]methyl}piperazin-1-yl)-N-{[4-({[(1S,3S)-3-hydroxycyclopentyl]methyl}amino)-3-nitrophenyl]sulfonyl}-2-(1H-pyrrolo[2,3-b]pyridin-5-yloxy)benzamide], the Ki was less than 10 pM.

On to `CC1(C)CCC(CN2CCN(c3ccc(C(=O)NS(=O)(=O)c4ccc(OC[C@H]5CC[C@@](C)(O)CC5)c(Cl)c4)c(Oc4cnc5[nH]ccc5c4)c3)CC2)=C(c2ccc(Cl)cc2)C1` [Compound 362, N-({3-chloro-4-[(trans-4-hydroxy-4-methylcyclohexyl)methoxy]phenyl}sulfonyl)-4-(4-{[2-(4-chlorophenyl)-4,4-dimethylcyclohex-1-en-1-yl]methyl}piperazin-1-yl)-2-(1H-pyrrolo[2,3-b]pyridin-5-yloxy)benzamide], for which the Ki came to 16 pM.
